Assay results as given in US5990146A, “Benzimidazoles for inhibiting protein tyrosine kinase mediated cellular proliferation” (Warner-Lambert Company, priority 1998, dated 1999).
Where a name gives a salt, the structure may show the parent alone.

What was measured:
[1] = target: T1, Human EGF receptor tyrosine kinase (Homo sapiens, UniProt P00533); assay: EGFr tyrosine kinase assay; format: biochemical; details: Table 1; 10 μM ATP, 25° C., 10 minutes
T1 construct: Human EGF receptor tyrosine kinase is isolated from A431 human epidermoid carcinoma cells; endogenous in cells; host or cells: A431 human epidermoid carcinoma cells (detergent lysate, fast Q sepharose fractions)

[2] = target: T2, insulin receptor (INSr) (Homo sapiens, UniProt P06213); assay: Insulin receptor kinase assay; format: biochemical; details: Table 1; as for EGF receptor with 10 mM manganese chloride
T2 construct: An assay using the intracellular kinase domains of insulin receptor (INSr) is performed

[3] = target: T3, c-Src (Homo sapiens, UniProt P12931); assay: c-Src kinase assay; format: biochemical; details: Table 1; 5 μM ATP, room temperature, 10 minutes
T3 construct: made in house; host or cells: baculovirus infected insect cells
Procedure: c-Src kinase is purified from baculovirus infected insect cell lysates using an antipeptide monoclonal antibody directed against the N-terminal 2-17 amino acids as described previously by Fry, et al, Anticancer Drug Design. 9: 331-351 (1994). […] At the end of the lysate incubation, the beads are rinsed 3 times in lysis buffer, resuspended in lysis buffer containing 10% glycerol, and frozen. These latex beads are thawed, rinsed 3 times in assay buffer which is comprised of 40 mM tris pH 7.5, 5 mM magnesium chloride, and suspended in the same buffer. […] The reaction is started at room temperature by addition of the ATP and quenched 10 minutes later by the addition of 125 μL of 30% TCA, 0.1 M sodium pyrophosphate for 15 minutes on ice. The plate is then filtered and the wells washed with two 250-μL aliquots of 15% TCA, 0.1 M pyrophosphate. The filters are punched, counted in a liquid scintillation counter, and the data examined for inhibitory activity in comparison to a known inhibitor such as erbstatin. The method is described more fully in J. Med. Chem., 37: 598-609 (1994).

[4] = target: T4, PDGF receptor tyrosine kinase (mouse PDGF-β) (Mus musculus, UniProt P05622); assay: PDGFr tyrosine kinase assay (poly glutamate-tyrosine phosphorylation); format: biochemical; details: Table 1; 10 minutes at 25° C.
T4 construct: PCR primers are designed to amplify a fragment of DNA that codes for the intracellular tyrosine kinase domain; made in house; host or cells: Sf9 insect cells (baculovirus), cell lysate
Procedure: Platelet Derived Growth Factor Receptor (PDGFr) and Fibroblast Growth Factor Receptor (FGFr)
Full length cDNAs for the mouse PDGF-β and human FGF-1 (flg) receptor tyrosine kinases were obtained from J. Escobedo and are prepared as described in J. Biol. Chem., 262: 1482-1487 (1991). PCR primers are designed to amplify a fragment of DNA that codes for the intracellular tyrosine kinase domain. The fragment is melded into a baculovirus vector, cotransfected with AcMNPV DNA, and the recombinant virus isolated. SF9 insect cells are infected with the virus to overexpress the protein, and the cell lysate is used for the assay.
The assay is performed in 96-well plates (100 μL/incubation/well), and conditions are optimized to measure the incorporation of ^32 p from [γ^32 P]-ATP into a glutamate-tyrosine copolymer substrate. Briefly, to each well is added 82.5 μL of incubation buffer containing 25 mM Hepes (pH 7.0), 150 mM NaCl, 0.1% Triton X-100, 0.2 mM PMSF, 0.2 mM sodium vanadate, 10 mM manganese chloride, and 750 μg/mL of poly (4:1) glutamate-tyrosine followed by 2.5 μL of inhibitor and 5 μL of enzyme lysate (7.5 μg/μL FGFR-TK or 6.0 μg/μL PDGFR-TK) to initiate the reaction. Following a 10 minute incubation at 25° C., 10 μL of [γ^32 P]-ATP (0.4 μCi plus 50 μM ATP) is added to each well and samples are incubated for an additional 10 minutes at 25° C. The reaction is terminated by the addition of 100 μL of 30% trichloroacetic acid (TCA) containing 20 mM sodium pyrophosphate and precipitation of material onto glass fiber filter mats (Wallac). Filters are washed 3 times with 15% TCA containing 100 mM sodium pyrophosphate and the radioactivity retained on the filters counted in a Wallac 1250 Betaplate reader. Nonspecific activity is defined as radioactivity retained on the filters following incubation of samples with buffer alone (no enzyme). Specific enzymatic activity is defined as total activity (enzyme plus buffer) minus nonspecific activity.

[5] = target: T5, FGF receptor tyrosine kinase (human FGF-1 (flg)) (Homo sapiens, UniProt P11362); assay: FGFr tyrosine kinase assay (poly glutamate-tyrosine phosphorylation); format: biochemical; details: Table 1; 10 minutes at 25° C.
T5 construct: PCR primers are designed to amplify a fragment of DNA that codes for the intracellular tyrosine kinase domain; made in house; host or cells: Sf9 insect cells (baculovirus), cell lysate
Procedure: Platelet Derived Growth Factor Receptor (PDGFr) and Fibroblast Growth Factor Receptor (FGFr) Full length cDNAs for the mouse PDGF-β and human FGF-1 (flg) receptor tyrosine kinases were obtained from J. Escobedo and are prepared as described in J. Biol. Chem., 262: 1482-1487 (1991). PCR primers are designed to amplify a fragment of DNA that codes for the intracellular tyrosine kinase domain. The fragment is […] into a baculovirus vector, cotransfected with AcMNPV DNA, and the recombinant virus isolated. SF9 insect cells are infected with the virus to overexpress the protein, and the cell lysate is used for the […] and FGFr The assay is performed in 96-well plates (100 μL/incubation/well), and conditions are optimized to measure the incorporation of ^32 p from [γ^32 P]-ATP into a glutamate-tyrosine copolymer substrate. […] The reaction is terminated by the addition of 100 μL of 30% trichloroacetic acid (TCA) containing 20 mM sodium pyrophosphate and precipitation of material onto glass fiber filter mats (Wallac). Filters are washed 3 times with 15% TCA containing 100 mM sodium pyrophosphate and the radioactivity retained on the filters counted in a Wallac 1250 Betaplate reader. Nonspecific activity is defined as radioactivity retained on the filters following incubation of samples with buffer alone (no enzyme). Specific enzymatic activity is defined as total activity (enzyme plus buffer) minus nonspecific activity.

[6] = system: PDGF receptor autophosphorylation in rat aorta smooth muscle cells; assay: PDGF Receptor Autophosphorylation Assay in rat aorta smooth muscle cells; format: cell-based; details: Table 2, PDGF-BB 30 ng/mL, 2 hours pre-incubation, read-out: IC50, inhibition of PDGF-stimulated receptor autophosphorylation
Procedure: Rat aorta smooth muscle cells (RASMC) are isolated from the thoracic aorta of rats and explanted according to the method of Ross, J. Cell. […] Cells are grown in Dulbecco's modified Eagle's medium (DMEM, Gibco) containing 10% fetal calf serum (FBS, Hyclone, Logan, Utah), 1% glutamine (Gibco) and 1% penicillin/streptomycin (Gibco). Cells are identified as smooth muscle cells by their "hill and valley" growth pattern and by fluorescent staining with a monoclonal antibody specific for SMC μ-actin (Sigma). RASMC are used between passages 5 and 20 for all experiments. Test compounds are prepared in dimethylsulfoxide (DMSO) in order to achieve consistency in the vehicle and to ensure compound solubility. Appropriate DMSO controls are simultaneously evaluated with the test compounds.
Rat aortic smooth muscle cells are grown to confluencey in 100 mm dishes. Growth medium is removed and replaced with serum-free medium and cells are incubated at 37° C. for an additional 24 hours. Test compounds are then added directly to the medium and cells incubated for an additional 2 hours. After 2 hours PDGF-BB is added at a final concentration of 30 ng/mL for 5 minutes at 37° C. to stimulate autophosphorylation of PDGF receptors. Following growth factor treatment, the medium is removed, and cells are washed with cold phosphate-buffered saline and immediately lysed with 1 mL of lysis buffer (50 mM Hepes, pH 7.5, 150 mM NaCl, 10% glycerol, 1% Triton-X 100, 1 mM EDTA, 1 mM EGTA, 50 mM NaF, 1 mM sodium orthovanadate, 30 mM p-nitrophenyl phosphate, 10 mM sodium pyrophosphate, 1 mM phenylmethyl sulfonyl fluoride, 10 μg/mL aprotinin and 10 μg/mL leupeptin). Lysates are centrifuged at 10,000 ×g for 10 minutes. […] Following the incubation, protein-A-sepharose beads are added for 2 hours with continuous mixing, and immune complexes bound to the beads washed 4 times with 1 mL lysis wash buffer. Immune complexes are solubilized in 40 μL of Laemmli sample buffer and electrophoresed in 8-16% SDS polyacrylamide gels. Following electrophoresis, separated proteins are transferred to nitrocellulose and immunoblotted with a 1:1000 dilution of antiphosphotyrosine monoclonal antibody (UBI clone 4G10; #05-321). Following extensive washing with PBS-0.2% tween-20, the blots are incubated with horseradish peroxidase labeled goat antimouse IgG (1:5000; Bio-Rad Inc, Hercules, Calif.) and protein levels are detected by enhanced chemiluminescence (ECL) detection system according to the instructions of the supplier (Amersham Inc, Arlington Heights, Ill.). The density of the protein bands are determined using NIH Image software (v. 1.56) and IC50 values are generated from the densitometric data.

T3 sequence (P12931 whole entry, species assumed): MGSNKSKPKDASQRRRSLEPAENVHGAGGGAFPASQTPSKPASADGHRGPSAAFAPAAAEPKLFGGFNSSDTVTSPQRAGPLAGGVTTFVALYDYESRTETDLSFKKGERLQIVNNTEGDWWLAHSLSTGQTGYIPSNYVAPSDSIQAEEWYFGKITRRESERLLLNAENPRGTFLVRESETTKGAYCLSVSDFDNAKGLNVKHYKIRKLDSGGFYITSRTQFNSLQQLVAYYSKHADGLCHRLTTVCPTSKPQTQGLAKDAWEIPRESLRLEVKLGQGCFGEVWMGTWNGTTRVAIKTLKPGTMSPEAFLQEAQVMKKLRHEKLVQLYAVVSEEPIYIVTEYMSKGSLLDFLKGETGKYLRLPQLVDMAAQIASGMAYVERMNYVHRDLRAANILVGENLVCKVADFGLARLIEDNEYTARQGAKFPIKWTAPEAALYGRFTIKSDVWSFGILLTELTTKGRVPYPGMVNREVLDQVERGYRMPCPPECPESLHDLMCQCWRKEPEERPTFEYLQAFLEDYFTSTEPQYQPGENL
T5 sequence (P11362 478-767 limits assumed): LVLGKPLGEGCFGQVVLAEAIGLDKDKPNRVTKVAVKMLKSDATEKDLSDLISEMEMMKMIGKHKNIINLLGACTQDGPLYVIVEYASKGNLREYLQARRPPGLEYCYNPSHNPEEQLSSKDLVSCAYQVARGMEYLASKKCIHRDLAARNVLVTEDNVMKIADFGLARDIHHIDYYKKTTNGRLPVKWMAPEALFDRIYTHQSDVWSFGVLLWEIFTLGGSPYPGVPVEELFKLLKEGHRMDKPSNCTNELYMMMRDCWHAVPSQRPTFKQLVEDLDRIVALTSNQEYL
T2 sequence (P06213 1023-1298 limits assumed, species assumed): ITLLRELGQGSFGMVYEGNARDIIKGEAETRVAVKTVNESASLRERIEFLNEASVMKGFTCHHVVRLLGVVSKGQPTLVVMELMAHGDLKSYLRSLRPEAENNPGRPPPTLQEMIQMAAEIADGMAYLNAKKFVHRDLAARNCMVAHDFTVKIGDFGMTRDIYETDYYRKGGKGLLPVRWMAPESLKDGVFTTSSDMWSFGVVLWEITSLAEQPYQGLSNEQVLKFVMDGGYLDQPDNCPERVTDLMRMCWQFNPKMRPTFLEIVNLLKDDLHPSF
T4 sequence (P05622 599-961 limits assumed): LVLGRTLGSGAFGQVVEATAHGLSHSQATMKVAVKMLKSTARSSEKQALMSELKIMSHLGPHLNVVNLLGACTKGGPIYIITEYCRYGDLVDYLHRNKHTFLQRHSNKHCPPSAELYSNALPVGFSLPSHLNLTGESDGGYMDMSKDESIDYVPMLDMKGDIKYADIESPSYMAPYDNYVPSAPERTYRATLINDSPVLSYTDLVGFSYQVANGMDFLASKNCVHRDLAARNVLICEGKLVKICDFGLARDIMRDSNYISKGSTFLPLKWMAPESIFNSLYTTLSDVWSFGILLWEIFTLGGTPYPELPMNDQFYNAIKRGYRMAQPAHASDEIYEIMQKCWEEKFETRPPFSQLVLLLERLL
T1 sequence (P00533 25-1210): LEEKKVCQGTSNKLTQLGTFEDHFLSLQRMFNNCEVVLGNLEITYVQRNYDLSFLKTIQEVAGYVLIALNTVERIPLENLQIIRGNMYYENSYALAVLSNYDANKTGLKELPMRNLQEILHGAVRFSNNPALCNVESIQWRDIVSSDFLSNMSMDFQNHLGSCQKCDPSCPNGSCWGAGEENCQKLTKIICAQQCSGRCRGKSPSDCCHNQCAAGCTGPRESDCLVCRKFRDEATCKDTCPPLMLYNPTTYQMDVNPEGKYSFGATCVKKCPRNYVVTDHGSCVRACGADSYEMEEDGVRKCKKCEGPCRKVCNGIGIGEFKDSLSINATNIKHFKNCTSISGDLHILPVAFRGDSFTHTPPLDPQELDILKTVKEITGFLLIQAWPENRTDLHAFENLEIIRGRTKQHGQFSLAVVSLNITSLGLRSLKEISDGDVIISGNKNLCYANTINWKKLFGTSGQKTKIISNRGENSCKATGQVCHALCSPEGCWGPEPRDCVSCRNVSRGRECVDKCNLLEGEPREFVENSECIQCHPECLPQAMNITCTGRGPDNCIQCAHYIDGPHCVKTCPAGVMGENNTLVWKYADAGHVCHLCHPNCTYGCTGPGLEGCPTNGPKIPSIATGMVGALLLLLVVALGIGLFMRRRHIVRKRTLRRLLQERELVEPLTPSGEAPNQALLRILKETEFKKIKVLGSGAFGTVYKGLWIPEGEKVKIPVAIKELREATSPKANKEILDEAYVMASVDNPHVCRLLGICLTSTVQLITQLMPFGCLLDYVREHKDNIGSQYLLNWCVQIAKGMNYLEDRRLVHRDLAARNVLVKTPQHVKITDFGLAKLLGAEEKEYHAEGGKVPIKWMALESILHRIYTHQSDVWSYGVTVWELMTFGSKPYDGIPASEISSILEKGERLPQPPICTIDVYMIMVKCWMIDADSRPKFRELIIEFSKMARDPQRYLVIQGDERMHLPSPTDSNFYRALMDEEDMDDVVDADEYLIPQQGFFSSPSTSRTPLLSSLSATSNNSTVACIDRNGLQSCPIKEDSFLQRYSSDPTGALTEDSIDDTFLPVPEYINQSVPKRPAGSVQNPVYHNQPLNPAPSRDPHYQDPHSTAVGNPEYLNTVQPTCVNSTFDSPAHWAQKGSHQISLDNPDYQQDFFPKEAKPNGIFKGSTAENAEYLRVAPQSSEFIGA

SMILES: c1ccc(-n2cnc3ccccc32)cc1 [Example 1, 1-Phenylbenzimidazole]
- IC50 [1]: > 50 µM
- IC50 [2]: > 50 µM

SMILES: Nc1cccc(-n2cnc3ccccc32)c1 [Example 3, 1-(3-Aminophenyl)benzimidazole]
- IC50 [3]: > 50 µM
- IC50 [1]: > 50 µM
- IC50 [2]: > 50 µM
- IC50 [4]: 3.6 µM

SMILES: COC(=O)c1ccc(-n2cnc3ccccc32)cc1 [Example 7, 1-(4-Carbomethoxyphenyl)benzimidazole]
- IC50 [3]: > 50 µM
- IC50 [1]: > 50 µM
- IC50 [5]: > 50 µM
- IC50 [2]: > 50 µM
- IC50 [4]: 7.2 µM

SMILES: Nc1ccc(-n2cnc3ccccc32)cc1 [Example 8, 1-(4-Aminophenyl)benzimidazole Dihydrochloride]
- IC50 [6]: > 10 µM
- IC50 [4]: 5.6 µM

SMILES: Cc1ccc2c(c1)ncn2-c1ccccc1 [Example 12, 5-Methyl-1-phenylbenzimidazole Hydrochloride]
- IC50 [3]: > 50 µM
- IC50 [1]: 50 µM
- IC50 [5]: > 50 µM
- IC50 [2]: > 50 µM
- IC50 [4]: 4.4 µM

SMILES: Oc1ccc2c(c1)ncn2-c1ccccc1 [Example 14, 5-Hydroxy-1-phenylbenzimidazole]
- IC50 [1]: > 50 µM
- IC50 [5]: 6.4 µM
- IC50 [2]: > 50 µM
- IC50 [4]: 0.4 µM

SMILES: O=C(O)c1ccc2c(c1)ncn2-c1ccccc1 [Example 16, 1-Phenylbenzimidazole-5-carboxylic Acid Hydrochloride]
- IC50 [3]: 50 µM
- IC50 [1]: > 50 µM
- IC50 [5]: 28 µM
- IC50 [2]: > 50 µM
- IC50 [4]: 9.3 µM

SMILES: COC(=O)c1ccc2c(c1)ncn2-c1ccccc1 [Example 17, Methyl 1-Phenylbenzimidazole-5-carboxylate]
- IC50 [3]: > 50 µM
- IC50 [1]: > 50 µM
- IC50 [5]: 6.6 µM
- IC50 [2]: > 50 µM
- IC50 [4]: 0.8 µM

SMILES: NC(=O)c1ccc2c(c1)ncn2-c1ccccc1 [Example 18, 1-Phenylbenzimidazole-5-carboxamide Hydrochloride]
- IC50 [3]: < 50 µM
- IC50 [1]: > 50 µM
- IC50 [5]: 9.9 µM
- IC50 [2]: > 50 µM
- IC50 [4]: 1.6 µM

SMILES: Nc1ccc2c(c1)ncn2-c1ccccc1 [Example 19, 5-Amino-1-phenylbenzimidazole]
- IC50 [3]: > 50 µM
- IC50 [1]: > 50 µM
- IC50 [5]: 36 µM
- IC50 [2]: > 50 µM
- IC50 [4]: 2.7 µM

SMILES: O=Cc1ccc2c(c1)ncn2-c1ccccc1 [Example 21, 1-Phenylbenzimidazole-5-carboxaldehyde]
- IC50 [3]: 50 µM
- IC50 [1]: < 50 µM
- IC50 [5]: 50 µM
- IC50 [2]: > 50 µM
- IC50 [4]: 8.4 µM

SMILES: OCc1ccc2c(c1)ncn2-c1ccccc1 [Example 26, 5-(Hydroxymethyl)-1-phenylbenzimidazole]
- IC50 [3]: > 50 µM
- IC50 [1]: < 50 µM
- IC50 [5]: > 50 µM
- IC50 [2]: > 50 µM
- IC50 [4]: 11.7 µM

SMILES: CC(=O)Oc1ccc2c(c1)ncn2-c1ccccc1 [Example 27, 5-Acetoxy-1-phenylbenzimidazole]
- IC50 [3]: > 50 µM
- IC50 [1]: > 50 µM
- IC50 [5]: 26 µM
- IC50 [2]: > 50 µM
- IC50 [4]: 1.8 µM

SMILES: C=CCOc1ccc2c(c1)ncn2-c1ccccc1 [Example 32, 5-Allyloxy-1-phenylbenzimidazole Hydrochloride]
- IC50 [3]: > 50 µM
- IC50 [5]: 35 µM
- IC50 [2]: > 50 µM
- IC50 [4]: 0.6 µM

SMILES: NCCOc1ccc2c(c1)ncn2-c1ccccc1 [Example 35, 5-(2-Aminoethoxy)-1-phenylbenzimidazole Dihydrochloride]
- IC50 [3]: < 50 µM
- IC50 [5]: 27 µM
- IC50 [2]: > 50 µM
- IC50 [4]: 0.7 µM

SMILES: CN(C)CCOc1ccc2c(c1)ncn2-c1ccccc1 [Example 36, 5-[2-(N,N-Dimethylamino)ethoxy]-1-phenylbenzimidazole Dihydrochloride]
- IC50 [3]: 29 µM
- IC50 [5]: 45 µM
- IC50 [2]: > 50 µM
- IC50 [4]: 1.5 µM

SMILES: COc1ccc2ncn(-c3ccccc3)c2c1 [Example 40, 6-Methoxy-1-phenylbenzimidazole]
- IC50 [6]: > 10 µM
- IC50 [4]: 6.4 µM

SMILES: Oc1ccc2ncn(-c3ccccc3)c2c1 [Example 41, 6-Hydroxy-1-phenylbenzimidazole Hydrochloride]
- IC50 [3]: > 50 µM
- IC50 [1]: > 50 µM
- IC50 [2]: < 50 µM
- IC50 [4]: 2.1 µM

SMILES: COC(=O)c1ccc2ncn(-c3ccccc3)c2c1 [Example 43, Methyl 1-phenylbenzimidazole-6-carboxylate Hydrochloride]
- IC50 [3]: > 50 µM
- IC50 [1]: > 50 µM
- IC50 [2]: > 50 µM
- IC50 [4]: 13 µM

SMILES: COC(=O)c1cc2c(cc1OC)ncn2-c1ccccc1 [Example 51, Methyl 5-methoxy-1-phenylbenzimidazole-6-carboxylate Hydrochloride]
- IC50 [3]: 33 µM
- IC50 [5]: 50 µM
- IC50 [2]: > 50 µM
- IC50 [4]: 0.9 µM

SMILES: COc1cc2ncn(-c3ccccc3)c2cc1CO [Example 53, 6-Hydroxymethyl-5-methoxy-1-phenylbenzimidazole Hydrochloride]
- IC50 [3]: 50 µM
- IC50 [5]: 12 µM
- IC50 [2]: > 50 µM
- IC50 [4]: 0.4 µM

SMILES: COc1ccc2c(c1)ncn2-c1cccs1 [Example 55, 5-Methoxy-1-(2-thienyl)benzimidazole Hydrochloride]
- IC50 [3]: > 50 µM
- IC50 [5]: 5.3 µM
- IC50 [2]: > 50 µM
- IC50 [4]: 2.5 µM
